Reference: US20230416307A1, “[…] PEPTIDES FOR ENHANCING VIRAL PRODUCTION” (Synvivia, Inc., priority 2022, published 2023)

Test system: AAV6
Assay: Single-site amino acid substitution scanning of CPs by enrichment score in AAV6
Type: cell-based, adeno-associated virus
Conditions: FIG. 29, relative to original CP
From the text: This plot visually depicts the functional impact of mutations on a particular cyclic peptide as measured by enrichment score. The heatmap provides valuable insights into the mutational landscape of cyclic peptides, highlighting positions where certain amino acid substitutions are either not tolerated (e.g., resulting in depletion), are neutral (e.g., resulting in similar enrichment scores), or are favored (e.g., resulting in higher enrichment, indicating enhanced cyclic peptide variants).
The heatmap is structured with rows indicating the position of the original amino acid, while the columns represent the position of the mutated amino acid (for a given row). The X-axis corresponds to the 20 natural amino acid substitutions for a given cyclic peptide residue index. The Y axis represents the amino acids present in a specific cyclic peptide, starting from the top with the “scar” residue from the peptide cyclization splicing reaction of DNA expressed cyclic peptides. The scar residue is typically amino acids containing a nucleophilic side chain like cysteine, serine, or threonine. Each row is labeled by the native amino acid of a given CP with amino acid positions going from top to bottom (e.g. index 1 is at the top, followed by index 2 followed by, index 3, etc. . . . ). The final amino acid at the bottom cyclizes with the scar residue at top. […]

Ser2Pro: CSSLT with serine in residue index 2 substituted with proline (CPSLT; cyclic; Cyclic peptide that was found to enhance AAV TU:VG ratio and lentiviral titer.)
enrichment factor of single-site substitution variant: substantially increased enrichment factors
